# Reference: patent US20260217701A1, “SELECTIVE BET INHIBITORS AND USES THEREOF” (Tay Therapeutics Limited, priority 2022, published 2026)
# Target: T1, BRD4 BD2 (Homo sapiens, UniProt O60885)
# T1 construct: HEK293 cells were transfected using NanoLuc-BRD4-BD1 or NanoLuc-BRD4-BD2 fusion vectors
# Experiment: NanoBRET bromodomain assay, NanoLuc-BRD4-BD2 in HEK293 cells
# Type: binding
# Details: nanoBRET assay, given as symbol only
# Procedure: Plates were then incubated at 37° C.+5% CO2 incubator for 2 hours.
# Fold Selectivity Calculated (IC50 BD1/IC50 BD2).
compound,measurement,setting,value
"CSCCn1cc(-c2ccccc2)c(-c2cn(C)c(=O)c3[nH]c(-c4cnn(C(F)(F)F)c4)cc23)cc1=O [Compound C, 6-methyl-4-(1-(2-(methylthio)ethyl)-2-oxo-5-phenyl-1,2-dihydropyridin-4-yl)-2-(1-(trifluoromethyl)-1H-pyrazol-4-yl)-1,6-dihydro-7H-pyrrolo[2,3-c]pyridin-7-one]",Selectivity (BD1/BD2),higher number denotes higher selectivity,>>>>
same,BD2,lower number denotes higher potency,<
